Data reported in patent publication US20230365625A1, “METHODS FOR TREATING AND/OR PREVENTING UNDESIRABLE SEQULAE OF NASAL TURBINOPLASTY OR FUNCTIONAL ENDOSCOPIC SINUS SURGERY” (3-D Matrix, Ltd., priority 2022, published 2023).
Where “and” joins values, the source holds several entries; their conditions need not be identical. Equal entries are not always repeated. Entries after “also recorded” stand apart in the source; their conditions may differ.

Columns and labels:
[1] = system: Functional Endoscopic Sinus Surgery (FESS) surgical wound; assay type: in vivo, human
Text: Study design—This study was a retrospective chart review of 94 consecutive human patients who underwent FESS and who were operated on by a single surgeon in a single center in Perth, Western Australia. FIGS. 6A and 6B show a flowchart of patients based on extent of surgery and outcomes. Only patients treated with PuraSinus alone (no other hemostatic agent was used) were included in the analysis. Ethics approval was obtained from St John of Good Health Care Human Research Ethics Committee.
Patient population—The study included adult human patients who underwent FESS procedures and also included patients who underwent FESS in combination with nasal surgery (septoplasty and/or turbinoplasty). Both primary and revision cases were included. Patients were discharged the day after surgery with a recommendation to perform saline nasal irrigations no less than four times a day. Patient characteristics, indication for surgery, extent of surgical intervention, and bleeding and adhesion information was recorded.
Surgical categories—Procedures were performed according to the minimally invasive sinus technique (MIST), including combination of maxillary antrostomy, ethmoidectomies, sphenoidotomies and frontal sinus (Draf Ila, or Draf 111), turbinate reduction and/or septoplasty. FESS procedures were categorized into two groups: complete FESS (including all sinuses—maxillary antrostomy, ethmoidectomy, sphenoidotomy, and frontal sinusotomy) or limited FESS (anything less than complete FESS, usually involves antrostomy and ethmoidectomy). The surgical extent was dictated by the patient's condition and the surgeon's clinical judgement.
Material used—PuraSinus (licensed as PuraStat in Australia, 3D-Matrix)/RADA16-I (SEQ ID NO:1) 2.5% w/v in water is a transparent SAP solution supplied sterile in a pre-filled syringe (available in a 3 mL and 5 mL form) ready for use with a thin application nozzle suited for endoscopic catheter administration. The syringe is stored at between 2° C. and 8° C. At completion of the FESS procedure, PuraSinus was applied to the surgical wound in a thin and even layer as close as possible to the bleeding point. A similar application technique has been outlined previously (M. Lee et al., Int. J. Surg. Case Rep. 41: 461-4 (2017)). […] Tissues treated with the hydrogel were visible via endoscope given the gel's transparency.
Outcomes and objectives—The objectives of this study were to evaluate the effectiveness of PuraSinus in rapidly achieving intraoperative hemostasis and to assess the incidence of delayed bleeding ([…]) and synechiae formation via endoscopic observation of the nasal mucosa at follow-up visits. Primary bleeding was defined as bleeding occurring within 24 hours of surgery.
Data analysis—Statistical analysis was performed using descriptive statistics for continuous variables and patient demographics were reported. The rate of successful hemostasis and incidence of synechiae formation were calculated as a proportion of total patients undergoing FESS.

[2] = system: nasal mucosal injuries on the middle turbinate and opposing nasal septum; experiment: Intra-operative time to hemostasis, sheep endoscopic nasal surgery model; assay type: in vivo, Merino sheep
Procedure: Surgical Methods—On the day prior to surgery, the animals were weighed, and each nostril was randomly assigned by computer randomization to receive PuraSinus, FLOSEAL or no treatment to each nostril after the surgical turbinoplasty. Each animal had food withheld for 24 hours and water withheld for 8 to 12 hours prior to the day of surgery as per the standard anesthetic procedure. The animals were sedated with a weight adjusted dose of intravenous diazepam. Following sedation, a percutaneous jugular catheter was inserted and secured, with induction achieved by further weight adjusted doses of intravenous diazepam and ketamine. The animals were placed in sternal recumbency for insertion of a size-appropriate endotracheal tube. Anesthesia was maintained through inhaled 1-2% isofluorane with parenteral propofol and ketamine given when necessary. Each animal was then given a prophylactic dose of long-acting antibiotic, weight adjusted oxytetracycline to cover for postoperative infections. The nasal cavity was prepared by packing with surgical pledgets soaked in 1% lignocaine and phenylephrine mixture. The middle turbinate was infiltrated with the same lignocaine/phenylephrine mixture via a small gauge needle in numerous sites over the middle turbinate. The use of vasoconstrictors and decongestants such as lignocaine and phenylephrine both topically and injected locally is standard pre-operatively in patients undergoing turbinoplasty (Ahmed S. et al., J. Coll. Physicians Surg. Pak. 26(6): 531-2 (2016)) The animals' vital signs were monitored throughout the procedure.
Prior to making incisions, all sheep were first examined under endoscope to screen for any nasal septum deviations. Only animals that had straight septum and uniform space between septum and middle turbinate were used. […]
Intraoperative observations—The degree of bleeding/hemostasis was assessed by an independent observer who was blinded to the appearance of FLOSEAL and PuraSinus (SEQ ID NO:1), and to the background of these two hemostatic agents. […]

How did the Blood transfusion required ([1]; human, in vivo) turn out when `CC(=O)N[C@@H](CCCNC(=N)N)C(=O)N[C@@H](C)C(=O)N[C@@H](CC(=O)O)C(=O)N[C@@H](C)C(=O)N[C@@H](CCCNC(=N)N)C(=O)N[C@@H](C)C(=O)N[C@@H](CC(=O)O)C(=O)N[C@@H](C)C(=O)N[C@@H](CCCNC(=N)N)C(=O)N[C@@H](C)C(=O)N[C@@H](CC(=O)O)C(=O)N[C@@H](C)C(=O)N[C@@H](CCCNC(=N)N)C(=O)N[C@@H](C)C(=O)N[C@@H](CC(=O)O)C(=O)N[C@@H](C)C(N)=O` [PuraSinus, Ac-RADARADARADARADA-NH2] was run?
Its Blood transfusion required is “None of the patients in this study required a blood transfusion”.

And the “Secondary bleed, patients” value ([1]; more than 24 hours after surgery, n of 94)?
Its value is 3.

And the “Secondary bleed, rate” value ([1]; more than 24 hours after surgery, of 94 patients)?
The value was 3.2%.

What about the “Intervention required for bleeding, patients” value ([1]; n of 94) of the same molecule?
The value was 4.

What about the “Intervention required, primary bleed, patients” value ([1]; n of 94) of the same molecule?
The value was 3.

And the “Intervention required, secondary bleed, patients” value ([1]; n of 94)?
The value was 1.

And the “Bleed (postoperative), patients” value ([1]; n of 94 patients)?
Its value is 6.

What about the “Hemostatic effectiveness, patients” value ([1]; no bleeding or no intervention required, n of 94) of the same molecule?
Its value is 90.

And the “Hemostatic effectiveness, rate” value ([1]; no bleeding or no intervention required, of 94 patients)?
Its value is 95.7%.

What about the “Type of intervention: Cautery + Surgiflo, patients” value ([1]; of 4 interventions) of the same molecule?
Its value is 1.

And the “Type of intervention: Cautery + additional PuraSinus, patients” value ([1]; of 4 interventions)?
Its value is 1.

And the “Type of intervention: Cautery alone, patients” value ([1]; of 4 interventions)?
The value was 1.

And the “Type of intervention: Packing, patients” value ([1]; of 4 interventions)?
The value was 1.

And the “Bleeding patients on anticoagulation/antiplatelets post-op” value ([1]; of 6 bleeds)?
Its value is 1.

What about the “Bleeding patients with suspected or confirmed coagulopathy” value ([1]; of 6 bleeds) of the same molecule?
Its value is 2.

What about the “Patients with postoperative bleeding: Complete FESS” value ([1]; of 6 bleeds) of the same molecule?
The value was 1.

And the “Patients with postoperative bleeding: Female” value ([1]; of 6 bleeds)?
Its value is 5.

What about the “Patients with postoperative bleeding: Limited FESS” value ([1]; of 6 bleeds) of the same molecule?
Its value is 5.

And the “Patients with postoperative bleeding: Male” value ([1]; of 6 bleeds)?
Its value is 1.

And the “Bleed (postoperative), rate” value ([1]; of 94 patients)?
Its value is 6.4%.

And the “Intervention required for bleeding, rate” value ([1]; of 94 patients)?
The value was 4.3% and 4.2%.

And the “Intervention required, primary bleed, rate” value ([1]; of 94 patients)?
The value was 3.2%.

What about the “Intervention required, secondary bleed, rate” value ([1]; of 94 patients) of the same molecule?
The value was 1.1%.

And the “Re-bleeds in patients with primary or secondary bleeds” value ([1]; result in words)?
Its value is “no re-bleeds recorded”.

And the “Hemostasis in the absence of other hemostatic agents and devices” value ([1]; result in words, most patients)?
The value was “effective hemostasis”.

What about the “Primary bleed, patients” value ([1]; within 24 hours of surgery, n of 94) of the same molecule?
The value was 3.

And the “Primary bleed, rate” value ([1]; within 24 hours of surgery, of 94 patients)?
Its value is 3.2%.

And the “Time to hemostasis” value ([2]; individual surgical site (sheep number, nostril), listed as P)?
Its value is 120 sec and 102 sec and 125 sec and 130 sec (3×) and 140 sec and 150 sec (2×) and 70 sec and 220 sec and 85 sec and 180 sec and 190 sec and 210 sec and 95 sec and 290 sec and 58 sec and 131 sec and 87 sec.

And the Intra-operative hemostasis time ([2]; sheep, mean±SD, 20 sites per group)?
The Intra-operative hemostasis time was 139.7 ± 56.2 s.

What about the “Hemostasis compared to untreated control” value ([2]; sheep, result in words) of the same molecule?
The value was “statistically significant reduction in time to hemostasis; also recorded: improved hemostasis”.
